# Source: ChEMBL document CHEMBL1201862, “PubChem BioAssay data set” (2004)
#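 Where inhibition never reached the appropriate level, the endpoint shown equals the highest concentration tested. Otherwise, values were interpolated linearly from a five-concentration, 48-hour dose response in 96-well plates. The concentration for 50% growth inhibition is given as GI50.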 The source made the active and inactive calls. Cut-off read from the data, not from the text of the source: active = GI50 up to about 1.1 µM and inactive = higher.
# What was measured:
# Assay in all cases: NCI-60 cell line screen, 48 h
# M19-MEL = system: M19-MEL
# DLD-1 = system: DLD-1
# DMS-273 = system: DMS-273
# DMS-114 = system: DMS-114
# SNB-78 = system: SNB-78
# RXF 631 = system: RXF 631
# HOP-18 = system: HOP-18
# LXFL 529 = system: LXFL 529
# BT-549 = system: BT-549
Compound,GI50 (M19-MEL),GI50 (DLD-1),GI50 (DMS-273),GI50 (DMS-114),GI50 (SNB-78),GI50 (RXF 631),GI50 (HOP-18),GI50 (LXFL 529),GI50 (BT-549)
O=C(c1ccccc1)c1ccc2cccc(O)c2n1,28.8 µM (inactive),27 µM (inactive),28.4 µM (inactive),10.9 µM (inactive),46.5 µM (inactive),55.1 µM (inactive),36.1 µM (inactive),–,–
CCc1cccc(C(C)C)c1NC(=O)/C(=N\NC(N)=O)C(C(=O)OC)c1cnc2ccccc2n1 (stereo unspecified),15.9 µM (inactive),79.6 µM (inactive),31.6 µM (inactive),24.9 µM (inactive),> 100 µM (inactive),55.2 µM (inactive),19.1 µM (inactive),52.4 µM (inactive),–
O=[N+]([O-])c1cccc(C(O)/C(=N/Nc2ccccc2)C2Nc3ccc([N+](=O)[O-])cc3N=C2O)c1 (stereo unspecified),45.4 µM (inactive),> 100 µM (inactive),36.8 µM (inactive),24.9 µM (inactive),> 100 µM (inactive),> 100 µM (inactive),–,37.6 µM (inactive),–
COC(=O)CCC(=O)C(C#N)c1ccc(Cl)cc1Cl (stereo unspecified),> 100 µM (inactive),> 100 µM (inactive),> 100 µM (inactive),–,> 100 µM (inactive),> 100 µM (inactive),–,> 100 µM (inactive),–
O=C1C(Br)=C(c2ccccc2)C(c2ccccc2)=C1c1ccccc1,2.17 µM (inactive),1.82 µM (inactive),1.79 µM (inactive),1.89 µM (inactive),2.12 µM (inactive),6.49 µM (inactive),4.9 µM (inactive),1.5 µM (inactive),3.6 µM (inactive)
CCOC(=O)NC(=O)c1cn(CCCOC(=O)CCCCCCCCCCC(=O)OCCCn2cc(C(=O)NC(=O)OCC)c(=O)[nH]c2=O)c(=O)[nH]c1=O,> 100 µM (inactive),> 100 µM (inactive),–,–,> 100 µM (inactive),37.3 µM (inactive),> 100 µM (inactive),> 100 µM (inactive),–
O=C(Cc1nc2ccccc2s1)Nc1cccc(C(F)(F)F)c1,13 µM (inactive),14.2 µM (inactive),18.7 µM (inactive),15.6 µM (inactive),–,13.8 µM (inactive),18.5 µM (inactive),13.4 µM (inactive),–
COc1cc2c(c(OC)c1OC)-c1ccc(OC)c(=O)cc1[C@@H](NC(=O)c1ccccc1)CC2,< 0.01 µM (active),< 0.0124 µM (active),< 0.01 µM (active),< 0.01 µM (active),< 0.01 µM (active),0.0115 µM (active),97.5 µM (inactive),< 0.01 µM (active),–
c1ccc(C2N3CCCCC3[C@@H]3c4[nH]c5ccccc5c4CCN23)nc1 (stereo partly specified),> 100 µM (inactive),> 100 µM (inactive),> 100 µM (inactive),27.4 µM (inactive),49.7 µM (inactive),> 100 µM (inactive),> 100 µM (inactive),> 100 µM (inactive),–
